Measured values from publication PMC6767236, “Selective Cannabinoid 2 Receptor Agonists as Potential Therapeutic Drugs for the Treatment of Endotoxin-Induced Uveitis” (Molecules, 2019).
≈ marks a conversion by molar mass, not a printed value. Read-outs that look alike come from different tables or passages of the source.

Experiments:
human CB2R [1] = biological target: T1, human CB2R (Homo sapiens, UniProt P34972); details: cited from earlier work; for functional behaviour in hCB2R β-arrestin assay: underlying data previously published
T1 construct: bgal (beta-galactosidase fragment of the PathHunter system, named only in the cell line's name); host or cells: CHO-K1 (CHOK1hCB2_bgal)

[2] = Saturation (thermodynamic) solubility in buffer, FaSSIF, FeSSIF; type: physicochemical; details: thermodynamic from solid
Method: Saturation Solubility (= Thermodynamic Solubility)
Approximately 8.6 mg test compound per milliliter solvent/vehicle was stirred in HPLC vials (9 × 12 × 32 mm, Waters) at 350 rpm for 15 h. Samples of 10 µL each were taken and microscopically examined for presence of solid particles. If the active pharmacological ingredient (API) dissolved completely, more solid API was added, and stirring was continued for another 15 h. Addition of solid material was repeated up to 96 h or until residual solid particles could be detected. Samples of 0.5 mL were then transferred to Eppendorf Ultrafree filter tubes (Filter: PVDF 0.22 µm) and centrifuged at 14,500 rpm for 10 min. The filtrates were diluted in ethanol and analyzed for content by UPLC. The measurements were also conducted in 0.05 M aqueous phosphate buffer, fasted (FaSSIF), and fed (FeSSIF) simulated gastrointestinal fluid. […]

[3] = human hepatocytes; * previously published; cited from earlier work
mouse CB2R = mouse CB2R (Mus musculus, UniProt P47936); test: biochemical; type: binding; set-up: bgal (beta-galactosidase fragment of the PathHunter system, named only in the cell line's name); host or cells: CHO-K1 (CHOK1mCB2_bgal); details: for hCB2R Ki/mouse CB2R Ki: species ratio of binding affinity
Method: Membrane fractions were prepared from cultured CHOK1hCB1_bgal, CHOK1hCB2_bgal, and CHOK1mCB2_bgal cells (DiscoveRx, Fremont, CA, USA) as previously described. Protein concentration was determined using the Pierce bicinchoninic acid (BCA) protein assay (Rochford, IL, USA) as per the manufacturer’s instructions.
Radio ligand-binding assays were carried out as described by Souethoudt et al. (2018). Briefly, membranes from cells expressing human CB2R or CB1R or mouse CB2R and the radioligand, [^3H]-CP55940 (Perkin Elmer, Basel, Switzerland) was used. […] Membrane aliquots containing 5 µg (CHOK1hCB1_bgal) or 1 µg (CHOK1hCB2_bgal) of membrane protein in 100 µL assay buffer (50 mMTris-HCl, 5 mM MgCl2, 0.1% bovine serum albumin (BSA), pH 7.4) were incubated at 30 °C for 1 h, in presence of 3.5 nM of [^3H]-CP55940 (CHOK1hCB1_bgal) or 1.5 nM [^3H]-CP55940 (CHOK1hCB2_bgal). The incubation was terminated by rapid filtration performed on glass microfibre (GF/C) filters (Whatman International, Maidstone, UK), presoaked for 30 min with 0.25% polyethyleneimine (PEI), and using a Brandel harvester (Brandel, Gaithersburg, MD, USA). Filter-bound radioactivity was determined by scintillation spectrometry using a Tri-Carb 2900 TR liquid scintillation counter (Perkin Elmer, Boston, MA, USA). For mouse experiments, spleens were collected as previously described and resuspended in 2 mM Tris-EDTA, 320 mM sucrose, 5 mM MgCl2 (pH 7.4). Tissue was homogenized with a Potter homogenizer and centrifuged three times at 1000× g (10 min). The supernatants were centrifuged at 18,000× g (30 min), and the pellets were resuspended in assay buffer (50 mM Tris-HCl, 2 mM Tris-EDTA, 3 mM MgCl2, pH 7.4). These membrane fractions were used in rapid filtration assays with 400 pM of [^3H]-CP55,940. In all receptor binding experiments, nonspecific binding was determined in the presence of 1 µM “cold” agonist.

[4] = Octanol/water distribution coefficient (logD); details: octanol/water, pH 7.4
human CB1R = biological target: T2, human CB1R (Homo sapiens, UniProt P21554)
T2 construct: host or cells: CHO

human CB2R [5] = biological target: T1, human CB2R; details: cited from earlier work; for hCB2R: cAMP efficacy: relative to 1 µM CP55940; for hCB2R: cAMP efficacy / EC50 / hCB1R cAMP EC50/hCB2R cAMP EC50: * previously published; for functional behaviour in hCB2R cAMP assay: underlying data previously published; for EC50: read-out: hCB2R: cAMP EC50; for hCB1R cAMP EC50/hCB2R cAMP EC50: functional selectivity
[6] = * previously published; cited from earlier work
mouse P-gp = details: cited from earlier work; for P-glycoprotein-Mediated Efflux Extraction Ratio mouse: mouse P-gp, * previously published; for P-gp substrate, mouse: underlying data previously published
[7] = set-up: method as in earlier work; details: mouse, i.v., 0.5-1 mg/kg; * previously published; cited from earlier work
[8] = set-up: method as in earlier work; details: * previously published, cited from earlier work
human CB2R [9] = biological target: T1, human CB2R; test: cAMP assay, CHO cells expressing human CB2R; type: cell-based; details: functional selectivity
Method: The effect of ligands on the forskolin-stimulated accumulation of cAMP was determined using the LANCE ULTRA cAMP kit as per the manufacturer’s instruction (Perkin-Elmer Life Sciences, Boston, MA, USA).
For human CB2R and CB1R, cAMP assays were performed using CHO cells stably expressing human CB2R or human CB1R (DiscoveRx, Fremont, CA, USA) using a cAMP-Nano-TRF detection kit (Roche Diagnostics, Penzberg, Germany). Cells were seeded 17–24 h prior to the experiment at a density of 3 × 10^4 cells per well in a black 96-well plate with clear flat bottom (Corning, Wiesbaden, Germany) and incubated in 5% CO2 at 37 °C in a humidified incubator. The growth medium was exchanged with Krebs Ringer bicarbonate buffer with 1 mmol/L 3-isobutyl-1-methylxanthine (IBMX), 0.1% fatty acid-free BSA and incubated at 30 °C for 60 min. Agonist was added to a final assay volume of 100 μL and the mixture was incubated for 30 min at 30 °C. The assay was stopped by the addition of 50 μL 3 × lysis reagent and shaken for 2 h at room temperature. The time-resolved fluorescence energy transfer was measured using an LF502 Nanoscan FLT (IOM, Berlin, Germany), equipped with a laser as excitation source. cAMP content was determined from the function of a standard curve spanning from 10 to 0.13 nmol/L cAMP. Efficacies are expressed as percent relative to 1 µM CP55940.

[10] = FaSSIF pH 6.5, read-out: Thermodynamic Solubility in FaSSIF (pH 6.5)
[11] = FeSSIF pH 5.5, read-out: Thermodynamic Solubility in FeSSIF (pH 5.5)
[12] = aqueous phosphate buffer pH 6.5, read-out: Thermodynamic Solubility in Aqueous Buffer (pH 6.5)

Sequence of mouse CB2R (P47936 whole entry, the tested form may be a part): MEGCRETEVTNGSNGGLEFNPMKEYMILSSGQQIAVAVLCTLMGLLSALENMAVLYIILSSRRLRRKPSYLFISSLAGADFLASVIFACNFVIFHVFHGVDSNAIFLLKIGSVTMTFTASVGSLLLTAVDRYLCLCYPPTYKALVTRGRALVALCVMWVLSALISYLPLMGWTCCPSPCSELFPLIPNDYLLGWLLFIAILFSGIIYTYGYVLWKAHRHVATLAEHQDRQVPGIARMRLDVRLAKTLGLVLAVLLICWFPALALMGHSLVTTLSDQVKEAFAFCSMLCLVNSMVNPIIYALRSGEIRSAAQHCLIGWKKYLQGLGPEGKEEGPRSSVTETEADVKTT
T1 sequence (P34972 whole entry, the tested form may be a part): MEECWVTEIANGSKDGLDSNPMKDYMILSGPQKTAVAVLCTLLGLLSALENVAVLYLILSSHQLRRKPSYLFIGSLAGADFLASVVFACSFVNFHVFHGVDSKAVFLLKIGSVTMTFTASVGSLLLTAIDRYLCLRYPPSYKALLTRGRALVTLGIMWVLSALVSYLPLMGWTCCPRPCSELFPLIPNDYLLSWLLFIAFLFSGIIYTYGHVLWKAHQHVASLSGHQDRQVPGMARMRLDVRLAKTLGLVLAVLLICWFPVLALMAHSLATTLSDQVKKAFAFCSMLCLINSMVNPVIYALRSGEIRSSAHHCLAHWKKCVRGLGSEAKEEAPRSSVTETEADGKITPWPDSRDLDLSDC
T2 sequence (P21554 whole entry): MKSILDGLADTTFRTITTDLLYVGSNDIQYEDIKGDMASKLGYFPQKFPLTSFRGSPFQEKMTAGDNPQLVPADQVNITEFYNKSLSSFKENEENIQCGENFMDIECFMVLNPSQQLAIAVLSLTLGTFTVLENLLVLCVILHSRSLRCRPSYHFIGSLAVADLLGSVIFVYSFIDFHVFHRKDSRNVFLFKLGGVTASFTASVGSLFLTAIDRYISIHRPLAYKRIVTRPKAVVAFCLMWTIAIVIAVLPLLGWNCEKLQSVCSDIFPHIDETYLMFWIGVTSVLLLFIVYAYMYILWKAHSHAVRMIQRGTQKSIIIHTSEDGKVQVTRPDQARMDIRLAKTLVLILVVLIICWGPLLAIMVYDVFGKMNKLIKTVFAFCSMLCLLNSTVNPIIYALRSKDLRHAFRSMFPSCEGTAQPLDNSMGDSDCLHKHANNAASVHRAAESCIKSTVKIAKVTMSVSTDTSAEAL

Row | SMILES | hCB2R: beta arrestin efficacy (human CB2R [1]; * previously published) | functional behaviour in hCB2R β-arrestin assay (human CB2R [1]) | solubility thermodynamic [2, 10] | solubility thermodynamic [2, 11] | solubility thermodynamic [2, 12] | Hepatocyte Clearance human [3] | hCB2R: cAMP efficacy (human CB2R [5]) | functional behaviour in hCB2R cAMP assay (human CB2R [5]) | Plasma Protein Binding: FREE Fraction human [6] | P-glycoprotein-Mediated Efflux Extraction Ratio mouse (mouse P-gp) | P-gp substrate, mouse (mouse P-gp) | hCB2R Ki/mouse CB2R Ki (mouse CB2R) | AUCINF D [7] | Clearance (CL) [7] | T1/2 [7] | Vss [7] | EC50 (human CB2R [5]) | hCB1R cAMP EC50/hCB2R cAMP EC50 (human CB2R [5]) | other results
1 | CCCCCCC(C)(C)c1cc(OC)c([C@H]2C=C(CO)[C@H]3C[C@@H]2C3(C)C)c(OC)c1 [HU308, {(1S,4S,5S)-4-[2,6-Dimethoxy-4-(2-methyloctan-2-yl)phenyl]-6,6-dimethylbicyclo[3.1.1]hept-2-en-2-yl}methanol, reference compound] | 107% | full agonist | 52 µg/mL (≈ 125 µM) | 60 µg/mL (≈ 145 µM) | < 1 µg/mL | 8.3 μL/min/Mio cells | 98% | full agonists | – | – | – | – | – | – | – | – | – | – | Ki (mouse CB2R): 223 nM; logD [4]: 4.29; EC50 (human CB1R; read-out: hCB1R: beta arrestin EC50; * previously published; cited from earlier work): > 10000 nM
2 | CNC(=O)[C@@H](NC(=O)c1cc(OCC2(C)COC2)c(C2CC2)cn1)C(C)(C)C [RO6851228, 5-Cyclopropyl-N-[(2S)-3,3-dimethyl-1-(methylamino)-1-oxobutan-2-yl]-4-[(3-methyloxetan-3-yl)methoxy]pyridine-2-carboxamide] | – | – | 421 µg/mL (≈ 1080 µM) | 243 µg/mL (≈ 624 µM) | 497 µg/mL (≈ 1280 µM) | 12 μL/min/Mio cells | −159% | inverse agonist | 9.6% | 25.1 | strong P-gp substrate | 45 | 226 ng·kg·h/mL/mg | 73.8 mL/min/kg | 1.08 h | 3.1 L/kg | 26 nM | >383 * | pKa (basic) [8]: 3.3
3 | CC(C)(C)c1nc(N2CC[C@H](O)C2)c2nnn(Cc3nnnn3C3CC3)c2n1 [RO6871304, (3S)-1-{5-tert-butyl-3-[(1-cyclopropyl-1H-tetrazol-5-yl)methyl]-3H-[1,2, 3]triazolo[4,5-d]pyrimidin-7-yl}pyrrolidin-3-ol] | 119% | full agonist | – | – | – | 15 μL/min/Mio cells | 102% | full agonists | – | – | – | 0.5 | – | 36.5 mL/min/kg | – | 0.95 L/kg | 1 nM | – | EC50 (human CB2R [1]; * previously published, read-out: hCB2R: beta arrestin EC50): 21 nM; hCB1R cAMP EC50/hCB2R cAMP EC50 (human CB2R [9]): >10,000; Ki (mouse CB2R; [3H]-CP55940 displacement, read-out: mouse CB2R: Ki): 34 nM
4 | Cc1nc([C@](C)(CC2CC2)NC(=O)c2cc(OCC(F)(F)F)c(C3CC3)cn2)no1 [RO6871085, 5-Cyclopropyl-N-[(2S)-1-cyclopropyl-2-(5-methyl-1,2,4-oxadiazol-3-yl)propan-2-yl]-4-(2,2,2-trifluoroethoxy)pyridine-2-carboxamide] | – | – | 37 µg/mL (≈ 87.2 µM) | 56 µg/mL (≈ 132 µM) | 3 µg/mL (≈ 7.07 µM) | 17 μL/min/Mio cells | 88% | full agonists | 1.0% | 1.7 | not a P-gp substrate | 13 | 1412 ng·kg·h/mL/mg | 11.8 mL/min/kg | 4.15 h | 4.0 L/kg | 8 nM | 174 * | pKa (acidic, calculated) ([8]; calculated): 10.1; pKa (basic, calculated) ([8]; calculated): 2.6; EC50 (human CB1R; * previously published; read-out: hCB1R: beta arrestin EC50; cited from earlier work): > 30000 nM
